Test results taken from ChEMBL document CHEMBL5724796, “Tm Shift (DSF) assay results for EUbOPEN Chemogenomics Library” (2024).
Residues, ends and D or L forms follow the SMILES beside them. *: point of attachment. Cbz = O=C(OCc1ccccc1)*; Boc = CC(C)(C)OC(=O)*; CH2F = FC*

Columns and labels:
Peregrin (Homo sapiens) = target: T1, Peregrin (Homo sapiens) (UniProt P55201); settings: Compound concentration 20.0 uM
T1 sequence (whole entry): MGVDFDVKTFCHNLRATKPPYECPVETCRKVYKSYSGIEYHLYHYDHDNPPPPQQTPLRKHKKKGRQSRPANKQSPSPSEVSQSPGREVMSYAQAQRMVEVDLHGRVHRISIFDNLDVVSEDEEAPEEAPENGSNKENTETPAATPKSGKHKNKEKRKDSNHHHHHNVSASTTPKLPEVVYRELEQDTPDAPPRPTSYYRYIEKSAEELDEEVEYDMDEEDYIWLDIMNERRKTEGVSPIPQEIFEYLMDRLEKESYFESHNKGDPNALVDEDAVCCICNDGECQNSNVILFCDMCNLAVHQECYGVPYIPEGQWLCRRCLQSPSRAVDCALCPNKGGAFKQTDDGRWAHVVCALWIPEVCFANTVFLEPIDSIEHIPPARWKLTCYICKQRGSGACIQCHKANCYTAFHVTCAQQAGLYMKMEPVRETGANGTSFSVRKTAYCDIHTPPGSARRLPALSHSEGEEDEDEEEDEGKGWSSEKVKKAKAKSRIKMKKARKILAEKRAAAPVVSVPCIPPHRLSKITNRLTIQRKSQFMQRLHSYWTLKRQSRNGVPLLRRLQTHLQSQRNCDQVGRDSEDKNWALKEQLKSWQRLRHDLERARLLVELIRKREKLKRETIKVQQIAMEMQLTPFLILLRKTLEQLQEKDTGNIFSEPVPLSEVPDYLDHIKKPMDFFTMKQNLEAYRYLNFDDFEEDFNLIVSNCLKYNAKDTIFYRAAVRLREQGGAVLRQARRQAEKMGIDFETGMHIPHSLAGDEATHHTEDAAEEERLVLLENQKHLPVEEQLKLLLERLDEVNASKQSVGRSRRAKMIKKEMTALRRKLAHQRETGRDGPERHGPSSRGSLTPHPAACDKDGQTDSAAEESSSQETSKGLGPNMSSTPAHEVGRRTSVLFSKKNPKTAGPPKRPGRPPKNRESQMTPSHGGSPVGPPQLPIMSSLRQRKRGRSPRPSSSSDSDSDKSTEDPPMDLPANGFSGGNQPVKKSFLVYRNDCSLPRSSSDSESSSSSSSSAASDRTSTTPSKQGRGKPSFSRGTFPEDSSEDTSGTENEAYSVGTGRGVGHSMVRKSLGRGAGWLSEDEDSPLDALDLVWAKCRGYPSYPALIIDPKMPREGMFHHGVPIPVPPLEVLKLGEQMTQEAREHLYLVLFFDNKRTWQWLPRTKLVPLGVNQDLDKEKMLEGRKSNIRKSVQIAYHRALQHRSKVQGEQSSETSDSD

[1] = target: Fibroblast growth factor receptor 2 (Homo sapiens) (UniProt P21802); settings: Compound concentration 20.0 uM
Chain of Fibroblast growth factor receptor 2 (Homo sapiens) (P21802 22-821 limits assumed): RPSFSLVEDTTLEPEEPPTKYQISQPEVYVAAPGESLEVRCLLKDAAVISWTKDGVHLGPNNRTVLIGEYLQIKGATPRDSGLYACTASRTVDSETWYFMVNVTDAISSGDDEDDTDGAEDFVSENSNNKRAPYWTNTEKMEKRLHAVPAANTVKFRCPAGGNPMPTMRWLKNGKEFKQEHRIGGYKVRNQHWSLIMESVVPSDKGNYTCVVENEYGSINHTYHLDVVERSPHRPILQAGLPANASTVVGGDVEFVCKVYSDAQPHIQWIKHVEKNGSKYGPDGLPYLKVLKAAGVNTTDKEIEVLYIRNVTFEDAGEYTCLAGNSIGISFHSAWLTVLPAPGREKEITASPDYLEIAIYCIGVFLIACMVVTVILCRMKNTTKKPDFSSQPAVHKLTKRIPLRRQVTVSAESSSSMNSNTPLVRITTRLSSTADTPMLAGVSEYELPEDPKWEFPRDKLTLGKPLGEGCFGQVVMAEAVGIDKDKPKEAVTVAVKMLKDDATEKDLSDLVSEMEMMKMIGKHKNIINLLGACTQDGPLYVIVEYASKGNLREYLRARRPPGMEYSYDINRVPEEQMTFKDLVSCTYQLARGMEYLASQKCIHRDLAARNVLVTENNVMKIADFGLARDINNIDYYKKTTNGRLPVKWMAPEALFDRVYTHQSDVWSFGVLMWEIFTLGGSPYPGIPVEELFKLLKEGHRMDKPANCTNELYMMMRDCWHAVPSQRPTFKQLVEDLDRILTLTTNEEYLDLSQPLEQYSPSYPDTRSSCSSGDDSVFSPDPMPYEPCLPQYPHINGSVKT
Description: Thermal Shift Assay. Domain: start/stop: T457-E768

| SMILES | ΔTm (Peregrin (Homo sapiens)) | ΔTm [1] | ΔTm (Peregrin (Homo sapiens); Protein concentration 2.0 uM) |
| --- | --- | --- | --- |
| NS(=O)(=O)OC[C@H]1C[C@@H](Nc2ncncc2C(=O)c2ccn(Cc3cccc(Br)c3)n2)C[C@@H]1O | 1.11 °C | -0.38 °C |  |
| O=C1C(P(=O)(O)O)CCCN1O (stereo not drawn) | -1.07 °C | 0.23 °C |  |
| O=C(NCCc1cc(C(=O)NO)no1)c1ccc(Cl)c(Cl)c1 | -1.25 °C | 0.8 °C |  |
| COc1cc(-c2cn(C)c(=O)c3cnccc23)cc(OC)c1CN(C)CC(=O)NCCOCCOCCNc1cccc2c1C(=O)N(C1CCC(=O)NC1=O)C2=O (stereo not drawn) | -0.56 °C | 0.52 °C |  |
| CC(C)(OCc1cc(-c2cccc(OC3CC3)c2)n(-c2ccccc2Cl)n1)C(=O)O | 0.83 °C | -0.52 °C |  |
| C[C@@H]1CCC[C@H](C)N1NC(=O)c1ccc(Cl)c(S(N)(=O)=O)c1 | 0.5 °C | -0.13 °C |  |
| CCc1oc2ccccc2c1C(=O)c1cc(Br)c(O)c(Br)c1 | -11 °C | -1.86 °C |  |
| Cc1cc(-n2cccc2)c(S(C)(=O)=O)cc1C(=O)N=C(N)N | 2.16 °C | -0.71 °C |  |
| Nc1ccc(-c2cccs2)cc1NC(=O)c1ccc(NC=O)cc1 | 2.98 °C | 0.02 °C |  |
| CCCCCCCCCCCCCC(=S)NCCCC[C@H](NC(=O)OCc1ccccc1)C(=O)Nc1ccccc1 | 3.33 °C | 0.84 °C |  |
| O=C(N1CCCCC1c1ccccc1)n1cc(-c2ccc(-c3cccc(CO)c3)cc2)nn1 (stereo not drawn) | -1.91 °C | -4.93 °C |  |
| CS(=O)(=O)N1CCN(C(=O)c2cnc3ccc(F)cc3c2N2CCC(C#N)(c3ccccc3)CC2)CC1 | 1.45 °C | -4.51 °C |  |
| Cc1nc(Nc2ncc(C(=O)Nc3c(C)cccc3Cl)s2)cc(N2CCN(CCO)CC2)n1 | -0.2 °C | 4.7 °C |  |
| O=C(CN1CCN(C(=O)c2ccco2)CC1)Nc1cc(C(F)(F)F)ccc1Cl | -0.04 °C | 0.27 °C |  |
| Cc1cccc(Nc2ccncc2S(=O)(=O)NC(=O)NC(C)C)c1 | 0.33 °C | -0.51 °C |  |
| CN1[C@@H]2CC[C@H]1C[C@@H](OC(c1ccc(F)cc1)c1ccc(F)cc1)C2 | -0.08 °C | -0.72 °C |  |
| O=C(O)CCNc1cc(N2CCc3ccccc3CC2)nc(-c2cccnc2)n1 | -1.01 °C | 0.9 °C |  |
| COc1cc2c(cc1OC)[C@H]1C[C@@H](O)[C@H](CC(C)C)CN1CC2 | 0.34 °C | 0.33 °C |  |
| COC(=O)CC(NC(=O)C(C)NC(=O)C(NC(=O)C(CC(=O)OC)NC(=O)C(NC(=O)OCc1ccccc1)C(C)C)C(C)C)C(=O)CF (stereo not drawn) (Cbz-VD(OMe)VAD(OMe)-CH2F; configuration not given here) | 2.28 °C | -0.48 °C |  |
| COc1ccc(-c2c(-c3ccc(C#N)c(F)c3)nc(N3CCC(N)CC3)n(C)c2=O)cc1F | 1.09 °C | 0.16 °C |  |
| OC[C@H]1O[C@@H](c2ccc(Cl)c(Cc3ccc(OCCOC4CC4)cc3)c2)[C@H](O)[C@@H](O)[C@@H]1O | 0.43 °C | -0.3 °C |  |

| SMILES | ΔTm (Peregrin (Homo sapiens)) | ΔTm [1] | ΔTm (Peregrin (Homo sapiens); Protein concentration 2.0 uM) |
| --- | --- | --- | --- |
| Nc1ccc(-c2cccs2)cc1NC(=O)c1ccc2nc(N3CCNCC3)ccc2c1 | 0.96 °C | 0.98 °C |  |
| O=C(CCCCCCNC(=O)c1cnc(N(c2ccccc2)c2ccccc2)nc1)NO | -1.39 °C | -0.22 °C |  |
| COc1ccc(N2CCN(C(=O)c3cc4c(s3)-c3ccccc3S(=O)(=O)C4)CC2)cc1 | 0 °C | 0.24 °C |  |
| OC1CN=C2c3ccn([C@@H]4O[C@H]([C@H](O)c5ccc(Cl)cc5)[C@@H](O)[C@H]4O)c3N=CN21 (stereo partly drawn) | -0.74 °C | 0.52 °C |  |
| CN(CCCCCCNc1ccnc2cc(Cl)ccc12)CCCCCCNc1ccnc2cc(Cl)ccc12 | 0.99 °C | 0.43 °C |  |
| CC(=O)Nc1ccc(C(=O)Nc2ccc(F)cc2N)cc1 | 1.03 °C | 0.76 °C |  |
| NS(=O)(=O)c1cc(-c2nnn[nH]2)c(NCc2cccs2)cc1Cl |  | 0.38 °C | 2 °C |
| O=C(NO)c1cccc(C(=O)NCCc2ccccc2)c1 | -0.84 °C | 0.41 °C |  |
| N[C@H]1CC[C@H](N[C@@H]2C[C@H]2c2ccccc2)CC1 | 1.23 °C | 0.55 °C |  |
| Cn1nc(C(C)(C)C)cc1C(=O)NC(Cc1cccc(Cl)c1)C(=O)NCC#N (stereo not drawn) | 2.3 °C | 0.05 °C |  |
| O=c1[nH]c(N2CCC3(CC2)CN(CCO)c2cc(F)cc(F)c23)nc2c1CCCC2 | 1.75 °C | -0.52 °C |  |
| Nc1c[nH]c(=O)c2cc(-c3ccccc3)sc12 | -1.11 °C | 0.44 °C |  |
| O=C(O)Cn1nnc(-c2ccc(CN(CCCCOc3ccc(CN4CCCC4)cc3)CCc3ccccc3)cc2)n1 | -2.23 °C | -2.96 °C |  |
| COc1cc2c(NCC3CCN(C)CC3)cc(-c3ccc(C)o3)nc2cc1OCCCN1CCCC1 | -0.88 °C | 0.16 °C |  |
| c1ccc(Cn2c(-c3ccc(OC[C@H](C4CCNCC4)n4c(-c5ccccc5)nc5ccccc54)cc3)nc3ccccc32)cc1 | -5.25 °C | -8.18 °C |  |
| O=C(NC(Cc1ccccc1)C(=O)NC(Cc1ccccc1)C(=O)CF)OCc1ccccc1 (stereo not drawn) (Cbz-Phe-Phe-CH2F; configuration not given here) | 1.77 °C | 0.39 °C |  |
| CCCSc1nc2c(c(=O)n1-c1ccccc1)SCC2 | 0.27 °C | 0.36 °C |  |
| CC(C)c1cc(C(=O)N2CC[C@@H](NC(=O)C3CC3)C2)[nH]n1 | -0.47 °C | -0.51 °C |  |
| CCCCCCNC(=O)n1cc(F)c(=O)[nH]c1=O | 0.95 °C | 0.03 °C |  |
| CNC(=O)c1cc(C(=O)NC2CC2)cn(Cc2ccccc2)c1=O | 0.73 °C | -1.38 °C |  |
| CC(=O)NCC(=O)N1CCC[C@@H]1B(O)O | 2.29 °C | 0.51 °C |  |

| SMILES | ΔTm (Peregrin (Homo sapiens)) | ΔTm [1] | ΔTm (Peregrin (Homo sapiens); Protein concentration 2.0 uM) |
| --- | --- | --- | --- |
| CCc1nc2c(C)cc(N3CCN(CC(=O)N4CC(O)C4)CC3)cn2c1N(C)c1nc(-c2ccc(F)cc2)c(C#N)s1 | -0.12 °C | 0.26 °C |  |
| C[C@H](Nc1nc2c(cnn2C2CCCC2)c(=O)[nH]1)c1ccc(Cl)cc1 | 1.99 °C | 0.2 °C |  |
| CC(C)[C@H](NC(=O)[C@H](CCC(=O)O)NC(=O)[C@H](C)NC(=O)OC(C)(C)C)C(=O)N[C@H](C=O)CC(=O)O (Boc-AEVD-aldehyde) | -1.27 °C | 0.45 °C |  |
| C[C@@H](Nc1nc2c(cnn2C2CCCC2)c(=O)[nH]1)C(=O)N1CC[C@H](F)C1 | -0.37 °C | -0.04 °C |  |
| CCn1ncc2c(NC3CCOCC3)c(-c3nnc(Cc4sc(C)nc4C)o3)cnc21 | 0.65 °C | 0.47 °C |  |
| O=C(NCCCCc1ccccc1)n1c(=O)oc2cc(-c3ccc(F)cc3)ccc21 | 2.4 °C | -0.32 °C |  |
| CC(C)Cn1c(=O)n(C)c(=O)c2c(C(=O)N3CC[C@@H](O)C3)c(Cc3ccnc4ccccc34)sc21 | 0.74 °C | 0.61 °C |  |
| Cn1ncc2c(-c3c(-c4ccc(F)cn4)nn4c3COC(C)(C)C4)ccnc21 | -1.06 °C | 1.01 °C |  |
| O=c1[nH][nH]c(=O)c2cc(OCc3ccsc3)ccc12 | 3.18 °C | 0.19 °C |  |
| CNC[C@@H](O)COc1ccc(Cl)c(-c2nc(-c3c(C)noc3C)c(C)c(N3CC4(CCN(C(=O)OC)CC4)C3)n2)c1 | -1.65 °C | 0.49 °C |  |
| O=C(NCCCCCCCCNC(=O)C(Cl)Cl)C(Cl)Cl | 0.99 °C | -0.34 °C |  |
| Cc1[nH]nc(C(F)(F)F)c1Cc1sc2c(c1C(=O)N1C[C@](C)(O)CO1)c(=O)n(C)c(=O)n2C(C)C | 0.94 °C | 1.06 °C |  |
| CCCOc1cccc(Oc2cc3c(cc2NS(=O)(=O)c2cccc(C(=O)NCCOCCOCCOCC(=O)N[C@H](C(=O)N4C[C@H](O)C[C@H]4C(=O)NCc4ccc(-c5scnc5C)cc4)C(C)(C)C)c2)n(C)c(=O)n3C)c1 | 1.17 °C | -3.12 °C |  |
| COc1cc(Nc2ncc(F)c(Nc3ccc4c(n3)NC(=O)C(C)(C)O4)n2)cc(OC)c1OC | -0.89 °C |  |  |
| Cc1cc(N2C[C@@H](C)N[C@@H](C)C2)ncc1-c1ccc(-c2nc3c(ccn3C)c(=O)[nH]2)cc1 | 2.61 °C | 0.8 °C |  |
| COc1ccc(Cc2nc(O)c3c(C)nc([C@@H](CCCc4ccccc4)[C@@H](C)O)n3n2)cc1OC | 0.21 °C | 0.51 °C |  |
| COc1ccccc1C(=O)Nc1cc2c(cc1N1CCCCC1)n(C)c(=O)n2C |  | 0.52 °C |  |
| CN1CCN(c2ccc3nc(-c4c(N)c5c(F)cccc5[nH]c4=O)[nH]c3c2)CC1 | -0.73 °C |  |  |
| COc1ccccc1C(=O)Nc1cc2c(cc1N1CCNC[C@H]1C)n(C)c(=O)n2C |  | 0.68 °C |  |
